Data: US20260364184A1, “COMPOUND BASED ON OXOISOINDOLINYL-SUBSTITUTED TETRAHYDROPYRIMIDINE-DIONE AND USE THEREOF” (GLUETACS THERAPEUTICS (SHANGHAI) CO., LTD., priority 2023, published 2026)

Columns and labels:
Type in all cases: cell-based
[1] = tested on: Human large cell immunoblastic lymphoma cell line SR; test: Inhibition of SR cell proliferation (CellTiter luminescent viability); conditions: Table IE1, CDK4/6 inhibitor-based, 96 hours, read-out: Inhibitory activity (IC50, nM) on tumor cell proliferation, SR
Protocol: The tumor cells used herein were cultured in a cell culture medium listed in table 3 at 37 °C in an incubator with 5% CO2. Prior to experimentation, all cell lines used were correctly identified by STR profiling, and tested negative for mycoplasma contamination using a mycoplasma detection kit through routine screenings.
The IC50 values of the compounds of the present disclosure (including the compounds in Table 1, Table 2, and Examples 1-468) were determined using the CellTiter-Meiluncell Luminescent Cell Viability Assay Kit from Dalian Meilun Biotech Co., Ltd. The detailed procedure is as follows: Tumor cells were seeded in 96-well cell culture plates at the densities specified in Table 4. On the following day, the test compounds of the present disclosure were subjected to serial dilution. The dilution can be performed according to one of the following two methods: • (1) The first dilution method: The test compounds of the present disclosure (including the compounds in Table 1, Table 2, and Examples 1-468) were subjected to 5-fold serial dilutions starting from a highest concentration of 2000 μM, resulting in a total of 9 concentrations from high to low (2000, 400, 80, 16, 3.2, 0.64, 0.128, 0.0256, 0.00512 μM). Subsequently, 0.5 μL of the test compound dilution was transferred into the 96-well plate containing the cells, with each well containing 100 μL of cell culture medium. […] Into the 96-well plate, the diluted test compounds and corresponding detection reagents were added, resulting in final test compound concentrations of 500 nM and 10 nM, respectively. The experimental procedure is described below using the diluted 2 μM test compound as an example.
0.5 μL of the aforementioned diluted compound of the present disclosure (including the compounds in Table 1, Table 2, and Examples 1-468) was added to the seeded cells in 100 μL of medium, yielding a final test compound concentration of 10 nM. After the cells were treated with the compounds of the present disclosure for a specified period, the cell viability assay reagent was added to the culture medium according to the kit's instructions to determine cell viability. […] All controls were treated using the same procedure as the compounds of the present disclosure. The growth inhibition curves for the compounds of the present disclosure were plotted using Prism GraphPad software, and the IC50 values were calculated therefrom.

[2] = tested on: Human Acute T Lymphoblastic Leukemia Cells (Molt-4); test: Inhibition of Molt-4 cell proliferation (CellTiter luminescent viability); conditions: Table IE1, CDK4/6 inhibitor-based; Molt-4, 96 hours; read-out: Inhibitory activity (IC50, nM) on tumor cell proliferation, Molt-4
[3] = tested on: Human myeloid monocytic leukemia cell line (MV-4-11); test: Inhibition of MV-4-11 cell proliferation (CellTiter luminescent viability); conditions: for IC50: Table IE1, CDK4/6 inhibitor-based, MV-4-11, 96 hours, read-out: Inhibitory activity (IC50, nM) on tumor cell proliferation, MV-4-11; for inhibition at 0.01 µM / inhibition at 0.5 µM: Homo sapiens, MV4-11, Table IE3, CDK4/6 inhibitor-based, 96 hours; for inhibition at 0.01 µM: MV-4-11, 10 nM, read-out: Inhibition Rate at 10 nM (%); for inhibition at 0.5 µM: MV-4-11, 500 nM, read-out: Inhibition Rate at 500 nM (%)
In short: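 IC50 is fitted from luminescent viability (CellTiter-Meiluncell) curves. Nine-point, 5-fold dilution series (top stock 2000 μM) are added at 0.5 μL per 100 μL medium to cells plated the day before, with growth at 37 °C and 5% CO2.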

[4] = tested on: Human acute lymphocytic leukemia T lymphocytes cell line (CCRF-CEM); test: Inhibition of CCRF-CEM cell proliferation (CellTiter luminescent viability); conditions: Table IE1, CDK4/6 inhibitor-based, 96 hours, read-out: Inhibitory activity (IC50, nM) on tumor cell proliferation, CCRF-CEM
CDK4 = target: T1, CDK4 (Homo sapiens, UniProt P11802+Q96SW2); test: Western blot degradation of CDK4; conditions: MDA-MB-231 Cell; 24 hours
T1 construct: expression of target proteins in cells; endogenous in cells
Protocol: (§1) Conventional Western blot assay was performed to evaluate the effects of the compounds of the present disclosure on the expression of target proteins in cells.
(§2) (1) Cell Seeding and Protein Harvesting: The selected cells were processed according to the cell seeding procedure and protein harvesting procedure in Table II-2.
(§3) (2) To the collected supernatant, 5×SDS sample loading buffer was added, followed by denaturation at 95 °C for 5 minutes. The denatured samples were then separated by SDS-PAGE electrophoresis on a polyacrylamide gel. Proteins were transferred to a nitrocellulose membrane (0.45 μm NC membrane), blocked with blocking buffer at room temperature for 1 hour, and subjected to antibody incubation and development procedures according to the antibody manufacturer's instructions (Cell Signaling Technology).
(§4) Half-Maximal Degradation Concentration value (the drug concentration required for degrading proteins by 50%, abbreviated as DC50) reads method: comparing the grayscale values of Western blot bands from drug-treated samples with those from blank DMSO-treated controls, and identifying the drug concentration range at which the grayscale value is half that of the DMSO-treated control bands.
(§5) DC50 values can be calculated using ImageJ software to measure grayscale values of Western blot bands from drug-treated samples. The concentration-response curve is fitted to estimate the drug concentration corresponding to half the grayscale value.
(§6) Target protein remaining (%) refers to the percentage of target protein remaining in cells after treatment with protein degrader compounds.
(§7) Calculation method for target protein remaining (%): Use ImageJ software to measure grayscale values of Western blot bands from drug (protein degrader)-treated samples. The grayscale value of drug-treated bands is divided by that of internal control protein bands, and the resulting quotient is normalized to obtain the relative percentage of remaining target protein after protein degrader treatment.
(§8) Target protein degradation rate (%)=1−target protein remaining (%).

CDK6 = target: T2, CDK6 (Homo sapiens, UniProt Q00534+Q96SW2); test: Western blot degradation of CDK6; conditions: MDA-MB-231 Cell; 24 hours
T2 construct: expression of target proteins in cells; endogenous in cells
Protocol: as §1, §2, §3, §4, §5, §6, §7, §8

[5] = tested on: Human lung cancer cell line (H292); test: Inhibition of H292 cell proliferation (CellTiter luminescent viability); conditions: NCI-H292, Table IE2, CDK4/6 inhibitor-based, 96 hours; for inhibition at 0.01 µM: H292, 10 nM, read-out: Inhibition Rate at 10 nM (%); for inhibition at 0.5 µM: H292, 500 nM, read-out: Inhibition Rate at 500 nM (%)

T1 sequence (P11802 whole entry): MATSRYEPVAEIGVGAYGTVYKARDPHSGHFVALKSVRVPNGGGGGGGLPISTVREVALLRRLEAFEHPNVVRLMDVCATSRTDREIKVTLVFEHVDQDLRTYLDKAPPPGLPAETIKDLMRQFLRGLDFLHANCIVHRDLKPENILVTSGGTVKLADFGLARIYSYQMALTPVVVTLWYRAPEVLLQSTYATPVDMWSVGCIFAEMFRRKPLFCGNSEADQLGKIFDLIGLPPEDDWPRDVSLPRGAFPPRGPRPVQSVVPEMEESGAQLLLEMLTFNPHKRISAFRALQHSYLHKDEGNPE
T1 sequence (Q96SW2 whole entry): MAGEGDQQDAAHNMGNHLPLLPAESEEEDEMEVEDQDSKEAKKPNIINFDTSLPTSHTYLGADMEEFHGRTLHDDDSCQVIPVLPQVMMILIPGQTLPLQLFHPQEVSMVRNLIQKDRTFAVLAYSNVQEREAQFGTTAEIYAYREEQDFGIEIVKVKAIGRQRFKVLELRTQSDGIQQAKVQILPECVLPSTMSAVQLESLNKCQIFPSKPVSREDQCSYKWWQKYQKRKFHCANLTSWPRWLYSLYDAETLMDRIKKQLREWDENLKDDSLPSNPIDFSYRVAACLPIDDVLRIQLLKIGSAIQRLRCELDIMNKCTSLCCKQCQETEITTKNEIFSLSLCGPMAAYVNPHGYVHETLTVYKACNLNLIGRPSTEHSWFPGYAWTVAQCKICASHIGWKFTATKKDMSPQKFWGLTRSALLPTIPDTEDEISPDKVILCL
T1 sequence (Q16531 whole entry partner): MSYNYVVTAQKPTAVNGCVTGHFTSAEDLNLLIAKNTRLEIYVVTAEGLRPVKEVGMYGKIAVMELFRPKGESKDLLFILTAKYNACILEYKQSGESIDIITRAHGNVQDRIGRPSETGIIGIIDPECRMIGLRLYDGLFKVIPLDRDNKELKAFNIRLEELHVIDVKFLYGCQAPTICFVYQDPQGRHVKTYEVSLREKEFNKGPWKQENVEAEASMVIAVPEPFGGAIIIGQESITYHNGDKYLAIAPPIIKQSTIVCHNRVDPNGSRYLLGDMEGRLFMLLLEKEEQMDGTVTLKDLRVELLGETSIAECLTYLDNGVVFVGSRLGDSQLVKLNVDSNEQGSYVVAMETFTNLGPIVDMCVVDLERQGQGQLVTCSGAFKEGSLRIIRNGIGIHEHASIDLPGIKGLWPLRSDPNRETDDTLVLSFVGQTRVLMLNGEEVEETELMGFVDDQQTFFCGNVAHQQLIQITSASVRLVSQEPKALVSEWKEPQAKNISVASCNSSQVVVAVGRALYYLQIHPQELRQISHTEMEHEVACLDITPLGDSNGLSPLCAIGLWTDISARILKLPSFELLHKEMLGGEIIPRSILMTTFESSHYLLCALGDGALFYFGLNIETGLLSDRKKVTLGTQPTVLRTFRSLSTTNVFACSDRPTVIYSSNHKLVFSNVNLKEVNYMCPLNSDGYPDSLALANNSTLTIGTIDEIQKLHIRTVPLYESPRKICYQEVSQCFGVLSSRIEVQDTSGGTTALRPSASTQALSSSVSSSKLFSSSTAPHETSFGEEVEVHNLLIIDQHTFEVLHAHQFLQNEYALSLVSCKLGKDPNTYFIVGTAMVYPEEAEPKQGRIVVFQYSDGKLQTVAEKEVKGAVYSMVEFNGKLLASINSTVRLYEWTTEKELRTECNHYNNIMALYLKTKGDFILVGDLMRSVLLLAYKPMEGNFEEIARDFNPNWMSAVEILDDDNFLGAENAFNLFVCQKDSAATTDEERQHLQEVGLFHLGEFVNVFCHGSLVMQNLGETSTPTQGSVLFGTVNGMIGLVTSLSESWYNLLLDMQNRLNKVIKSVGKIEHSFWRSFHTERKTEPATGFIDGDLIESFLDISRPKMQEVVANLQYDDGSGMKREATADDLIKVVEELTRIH
T2 sequence (Q00534 whole entry): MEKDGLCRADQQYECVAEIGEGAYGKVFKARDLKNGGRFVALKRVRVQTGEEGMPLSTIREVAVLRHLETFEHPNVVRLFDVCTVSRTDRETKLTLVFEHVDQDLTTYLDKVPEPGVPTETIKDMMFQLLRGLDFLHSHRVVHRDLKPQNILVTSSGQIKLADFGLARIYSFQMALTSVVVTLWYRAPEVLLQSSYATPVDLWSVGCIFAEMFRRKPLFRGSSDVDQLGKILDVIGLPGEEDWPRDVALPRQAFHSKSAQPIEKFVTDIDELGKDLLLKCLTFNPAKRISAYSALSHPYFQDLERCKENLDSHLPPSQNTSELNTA
T2 sequence (Q96SW2 whole entry): as the sequence (Q96SW2 whole entry) above
T2 sequence (Q16531 whole entry partner): as the sequence (Q16531 whole entry partner) above

IC50 [1] [nM] | IC50 [2] [nM] | IC50 [3] [nM] | IC50 [4] [nM] | Degradation of substrate protein CDK6 (substrate protein remaining %) (CDK6) | SMILES | Degradation of substrate protein CDK4 (substrate protein remaining %) (CDK4) | inhibition at 0.01 µM [3] [%] | inhibition at 0.5 µM [3] [%] | inhibition at 0.01 µM [5] [%] | inhibition at 0.5 µM [5] [%]
100 to 300 | 100 to 300 | 10 to 50 | 100 to 300 | A (0%≤substrate protein remaining %≤80%) | Cc1nc2c(F)cc(-c3nc(Nc4ccc(N5CCC(N(C)CC6CCN(c7ccc8c(c7)C(=O)N(N7CCC(=O)NC7=O)C8=O)CC6)CC5)cn4)ncc3F)cc2n1C(C)C [GT-06733, 2-(2,4-dioxotetrahydropyrimidin-1(2H)-yl)-5-(4-(((1-(6-((5-fluoro-4-(4-fluoro-1-isopropyl-2-methyl-1H-benzo[d]imidazol-6-yl)pyrimidin-2-yl)amino)pyridin-3-yl)piperidin-4-yl)(methyl)amino)methyl)piperidin-1-yl)isoindoline-1,3-dione] | A (0%≤substrate protein remaining %≤80%) |  |  |  | 
 |  |  |  | A (0%≤substrate protein remaining %≤80%) | CN(C)C(=O)c1cc2cnc(Nc3ccc(N4CCC(CN5CCN(C6CCN(c7ccc8c(c7)C(=O)N(N7CCC(=O)NC7=O)C8=O)CC6)CC5)CC4)cn3)nc2n1C1CCCC1 [GT-05205, 7-cyclopentyl-2-((5-(4-((4-(1-(2-(2,4-dioxotetrahydropyrimidin-1(2H)-yl)-1,3-dioxoisoindolin-5-yl)piperidin-4-yl)piperazin-1-yl)methyl)piperidin-1-yl)pyridin-2-yl)amino)-N,N-dimethyl-7H-pyrrolo[2,3-d]pyrimidine-6-carboxamide] | B (80%<substrate protein remaining %≤100%) | 20 to 25 | 40 to 60 | 35 to 40 | 35 to 40
 |  |  |  | A (0%≤substrate protein remaining %≤80%) | CC(=O)c1c(C)c2cnc(Nc3ccc(N4CCN(Cc5ccc6c(c5)CN(N5CCC(=O)NC5=O)C6=O)CC4)cn3)nc2n(C2CCCC2)c1=O [GT-06573, 1-(5-((4-(6-((6-acetyl-8-cyclopentyl-5-methyl-7-oxo-7,8-dihydropyrido[2,3-d]pyrimidin-2-yl)amino)pyridin-3-yl)piperazin-1-yl)methyl)-1-oxoisoindolin-2-yl)dihydropyrimidine-2,4 (1H,3H)-dione] | B (80%<substrate protein remaining %≤100%) | 40 to 60 | 60 to 80 | 30 to 35 | 40 to 60
100 to 300 | 400 to 800 | 50 to 100 | 400 to 800 | A (0%≤substrate protein remaining %≤80%) | Cc1nc2c(F)cc(-c3nc(Nc4ccc(N5CCC(N(C)CC6CCN(c7cccc8c7C(=O)N(N7CCC(=O)NC7=O)C8=O)CC6)CC5)cn4)ncc3F)cc2n1C(C)C [GT-06734, 2-(2,4-dioxotetrahydropyrimidin-1(2H)-yl)-4-(4-(((1-(6-((5-fluoro-4-(4-fluoro-1-isopropyl-2-methyl-1H-benzo[d]imidazol-6-yl)pyrimidin-2-yl)amino)pyridin-3-yl)piperidin-4-yl)(methyl)amino)methyl)piperidin-1-yl)isoindoline-1,3-dione] | A (0%≤substrate protein remaining %≤80%) |  |  |  | 
100 to 300 |  | 300 to 400 |  | A (0%≤substrate protein remaining %≤80%) | Cc1nc2c(F)cc(-c3nc(Nc4ccc(N5CCC(N6CCN(Cc7ccc8c(c7)C(=O)N(N7CCC(=O)NC7=O)C8=O)CC6)CC5)cn4)ncc3F)cc2n1C(C)C [GT-06737, 2-(2,4-dioxotetrahydropyrimidin-1(2H)-yl)-5-((4-(1-(6-((5-fluoro-4-(4-fluoro-1-isopropyl-2-methyl-1H-benzo[d]imidazol-6-yl)pyrimidin-2-yl)amino)pyridin-3-yl)piperidin-4-yl)piperazin-1-yl)methyl)isoindoline-1,3-dione] | B (80%<substrate protein remaining %≤100%) |  |  |  | 
 |  |  |  | A (0%≤substrate protein remaining %≤80%) | CN(C)C(=O)c1cc2cnc(Nc3ccc(N4CCC(CN5C6CCC5CN(c5ccc7c(c5)C(=O)N(N5CCC(=O)NC5=O)C7=O)C6)CC4)cn3)nc2n1C1CCCC1 [GT-05812, 7-cyclopentyl-2-((5-(4-((3-(2-(2,4-dioxotetrahydropyrimidin-1(2H)-yl)-1,3-dioxoisoindolin-5-yl)-3,8-diazabicyclo[3.2.1]octan-8-yl)methyl)piperidin-1-yl)pyridin-2-yl)amino)-N,N-dimethyl-7H-pyrrolo[2,3-d]pyrimidine-6-carboxamide] | B (80%<substrate protein remaining %≤100%) | 15 to 20 | 40 to 60 | 35 to 40 | 30 to 35
 |  |  |  | A (0%≤substrate protein remaining %≤80%) | CN(C)C(=O)c1cc2cnc(Nc3ccc(N4CCC(N(C)CC5CCN(c6ccc7c(c6)C(=O)N(N6CCC(=O)NC6=O)C7=O)CC5)CC4)cn3)nc2n1C1CCCC1 [GT-06489, 7-cyclopentyl-2-((5-(4-(((1-(2-(2,4-dioxotetrahydropyrimidin-1(2H)-yl)-1,3-dioxoisoindolin-5-yl)piperidin-4-yl)methyl)(methyl)amino)piperidin-1-yl)pyridin-2-yl)amino)-N,N-dimethyl-7H-pyrrolo[2,3-d]pyrimidine-6-carboxamide] | A (0%≤substrate protein remaining %≤80%) | 25 to 30 | 40 to 60 | 30 to 35 | 40 to 60
